For nine molecules, EC50 results are on record in patent US8927549B2, “Adamantyl benzamide derivatives” (High Point Pharmaceuticals, LLC, priority 2008, dated 2015).

T1 sequence (P28845 whole entry): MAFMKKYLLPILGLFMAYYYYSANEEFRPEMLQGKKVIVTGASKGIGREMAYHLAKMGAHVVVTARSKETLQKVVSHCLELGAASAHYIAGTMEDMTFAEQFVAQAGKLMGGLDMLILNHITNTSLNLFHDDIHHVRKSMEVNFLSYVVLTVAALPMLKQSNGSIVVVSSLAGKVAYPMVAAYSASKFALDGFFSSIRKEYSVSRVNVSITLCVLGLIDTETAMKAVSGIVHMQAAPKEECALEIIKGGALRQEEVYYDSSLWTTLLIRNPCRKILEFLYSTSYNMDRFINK

The assay concerns the target T1, 11β-HSD (Homo sapiens, UniProt P28845).
T1 construct: from tissue
Description: in vitro 11β-HSD Assay (human microsomes, CISBIO Cortisol kit). As to conditions: 160 nM cortisone, 200 μM NADPH, 2 h at 37° C. The class given is biochemical. As for the experimental part:
Protocol for in vitro 11β-HSD Assay
CISBIO Cortisol kit #62CO2PEB
Assay Buffer: (water based) used for Enzyme, Compounds and Microsomes: 20 mM Tris, 5 mM EDTA, and pH 6.0.
Enzyme Buffer: 333 μM NADPH (FAC 200 μM) and 266 nM Cortisone (FAC 160 nM).
1) Test compounds (10 mM stock in 100% DMSO) were diluted in Assay Buffer (see below) with 1% DMSO FAC and placed into the 96-well plate. Test compounds were typically tested over 10 concentrations (30 μM-0.3 nM).
2) 30 μL Enzyme Buffer, 10 μL Test Compound, 10 μL human microsomes were added to the test compounds and mixed gently by tapping the plate.
3) The plates were incubated for 2 h at 37° C.
4) 25 μL anti Cortisol-K and 25 μL Cortisol d2 were added to the plate and mixed gently by tapping the plate.
5) The plates were incubated at room temperature for 2 h.
6) The plates were read on an Envision model 2120 Perkin-Elmer using emission filters #205 and #217.
`O=C(NC1C2CC3CC1CC(O)(C3)C2)c1cccc(Oc2ccc(Cl)nn2)c1` (stereo not drawn) [Example 6, 3-(6-Chloro-pyridazin-3-yloxy)-N-[(E)-5-hydroxy-adamantan-2-yl]-benzamide]: the concentration giving a half-maximal response (EC50) (as a rule, the concentration giving half of the maximal effect) was < 200 nM.
`O=C(NC1C2CC3CC1CC(O)(C3)C2)c1cccc(Oc2ccc(C(F)(F)F)cn2)c1` (stereo not drawn) [Example 2, N-[(E)-5-Hydroxy-adamantan-2-yl]-3-(5-trifluoromethyl-pyridin-2-yloxy)-benzamide]: the half-maximal effective concentration (EC50) was < 200 nM.
On to `O=C(NC1C2CC3CC1CC(O)(C3)C2)c1cccc(Oc2ncc(Cl)cc2Cl)c1` (stereo not drawn) [Example 7, 3-(3,5-Dichloro-pyridin-2-yloxy)-N-[(E)-5-hydroxy-adamantan-2-yl]-benzamide], for which the EC50 is < 200 nM.
The figure for `O=C(NC1C2CC3CC1CC(O)(C3)C2)c1cccc(Nc2ccc(Cl)cn2)c1` (stereo not drawn) [Example 8, 3-(5-Chloro-pyridin-2-ylamino)-N-[(E)-5-hydroxy-adamantan-2-yl]-benzamide] is < 200 nM.
Regarding `O=C(NC1C2CC3CC1CC(O)(C3)C2)c1cccc(Sc2ccc(Cl)cn2)c1` (stereo not drawn) [Example 3, 3-(5-Chloro-pyridin-2-ylsulfanyl)-N-[(E)-5-hydroxy-adamantan-2-yl]-benzamide], the EC50 is < 200 nM.
The figure for `Cc1cc(C)nc(Nc2cccc(C(=O)NC3C4CC5CC3CC(O)(C5)C4)c2)n1` (stereo not drawn) [Example 9, 3-(4,6-Dimethyl-pyrimidin-2-ylamino)-N-[(E)-5-hydroxy-adamantan-2-yl]-benzamide] is < 500 nM.
The result for `O=C(NC1C2CC3CC1CC(O)(C3)C2)c1cccc([S+]([O-])c2ccc(Cl)cn2)c1` (stereo not drawn) [Example 4, 3-(5-Chloro-pyridine-2-sulfinyl)-N-[(E)-5-hydroxy-adamantan-2-yl]-benzamide] reads < 500 nM.
The figure for `O=C(NC1C2CC3CC1CC(O)(C3)C2)c1cccc(Oc2ccc(Cl)cn2)c1` (stereo not drawn) [Example 1, 3-(5-Chloro-pyridin-2-yloxy)-N-[(E)-5-hydroxy-adamantan-2-yl]-benzamide] is < 200 nM; for `O=C(NC1C2CC3CC1CC(O)(C3)C2)c1cccc(S(=O)(=O)c2ccc(Cl)cn2)c1` (stereo not drawn) [Example 5, 3-(5-Chloro-pyridine-2-sulfonyl)-N-[(E)-5-hydroxy-adamantan-2-yl]-benzamide] it is < 3000 nM.
